Experimental data taken from PubChem BioAssay (NCI).
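1) Cells in 96-well plates. 2) Compound, 48 h, 5 concentrations. 3) Linear interpolation between surrounding doses. 4) Unreached endpoint = highest concentration. Here, GI50 denotes the concentration required for 50% inhibition of growth. Definition used: TGI = concentration required for complete inhibition of growth.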

Legend:
Assay in all cases: DTP human tumour cell line panel, 48 h
UACC-62 melanoma = system: UACC-62 melanoma
IGROV1 ovarian = system: IGROV1 ovarian
SR leukemia = system: SR leukemia
HCC-2998 colon = system: HCC-2998 colon
SF-268 CNS = system: SF-268 CNS
NCI-H522 lung = system: NCI-H522 lung
786-0 renal = system: 786-0 renal
UACC-257 melanoma = system: UACC-257 melanoma
NCI-H226 lung = system: NCI-H226 lung
SK-MEL-28 melanoma = system: SK-MEL-28 melanoma
HOP-92 NSCLC = system: HOP-92 NSCLC
ACHN renal = system: ACHN renal
A549 NSCLC = system: A549 NSCLC
SNB-19 CNS = system: SNB-19 CNS
SF-295 CNS = system: SF-295 CNS
SK-OV-3 ovarian = system: SK-OV-3 ovarian
NCI-H460 lung = system: NCI-H460 lung
M14 melanoma = system: M14 melanoma
HCT-116 colon = system: HCT-116 colon
TK-10 renal = system: TK-10 renal
SNB-75 CNS = system: SNB-75 CNS
RPMI-8226 leukemia = system: RPMI-8226 leukemia
OVCAR-8 ovarian = system: OVCAR-8 ovarian
SK-MEL-5 melanoma = system: SK-MEL-5 melanoma
MDA-MB-435 = system: MDA-MB-435
MCF7 breast = system: MCF7 breast
OVCAR-3 ovarian = system: OVCAR-3 ovarian
U251 CNS = system: U251 CNS
MALME-3M melanoma = system: MALME-3M melanoma
HL-60(TB) leukemia = system: HL-60(TB) leukemia
K-562 leukemia = system: K-562 leukemia
OVCAR-5 ovarian = system: OVCAR-5 ovarian
CAKI-1 renal = system: CAKI-1 renal
LOX IMVI melanoma = system: LOX IMVI melanoma
UO-31 renal = system: UO-31 renal
HOP-62 NSCLC = system: HOP-62 NSCLC
PC-3 prostate = system: PC-3 prostate
MDA-MB-231 breast = system: MDA-MB-231 breast
NCI-H23 lung = system: NCI-H23 lung
KM12 colon = system: KM12 colon
MOLT-4 leukemia = system: MOLT-4 leukemia
SW-620 colon = system: SW-620 colon
A498 renal = system: A498 renal
SK-MEL-2 melanoma = system: SK-MEL-2 melanoma
BT-549 breast = system: BT-549 breast
DU-145 prostate = system: DU-145 prostate
RXF 393 renal = system: RXF 393 renal
SF-539 CNS = system: SF-539 CNS
T-47D breast = system: T-47D breast
SN12C renal = system: SN12C renal
OVCAR-4 ovarian = system: OVCAR-4 ovarian
EKVX NSCLC = system: EKVX NSCLC
HCT-15 colon = system: HCT-15 colon
HS 578T breast = system: HS 578T breast
HT29 colon = system: HT29 colon
CCRF-CEM leukemia = system: CCRF-CEM leukemia
COLO 205 colon = system: COLO 205 colon
MDA-MB-468 breast = system: MDA-MB-468 breast
NCI/ADR-RES ovarian = system: NCI/ADR-RES ovarian

With `CC1(c2ccccc2)NC(=O)N(CC(=O)Nc2ccc(C(=O)/C=C/c3ccccc3)cc2)C1=O` (stereo not drawn) the GI50 (UACC-62 melanoma) was 6.52 µM, the TGI (UACC-62 melanoma) was 23 µM and the GI50 (IGROV1 ovarian) was 12.9 µM. It also gave a TGI (IGROV1 ovarian) of 27.7 µM, a GI50 (SR leukemia) of 3.1 µM and a TGI (SR leukemia) greater than 100 µM. The GI50 (HCC-2998 colon) was 4.25 µM, the TGI (HCC-2998 colon) was 14.3 µM and the GI50 (SF-268 CNS) was 12.4 µM. It also gave a TGI (SF-268 CNS) of 48.6 µM, a GI50 (NCI-H522 lung) of 11.1 µM and a TGI (NCI-H522 lung) of 27.4 µM. The GI50 (786-0 renal) was 13.7 µM, the TGI (786-0 renal) was 27.4 µM and the GI50 (UACC-257 melanoma) was 13.1 µM. It also gave a TGI (UACC-257 melanoma) of 27.4 µM, a GI50 (NCI-H226 lung) of 15.8 µM and a TGI (NCI-H226 lung) of 78.1 µM. It also gave a GI50 (SK-MEL-28 melanoma) of 14.3 µM, a TGI (SK-MEL-28 melanoma) of 29.1 µM and a GI50 (HOP-92 NSCLC) of 9.31 µM. It also gave a TGI (HOP-92 NSCLC) of 69.2 µM, a GI50 (ACHN renal) of 13.2 µM and a TGI (ACHN renal) of 31 µM. For the same molecule, the GI50 (A549 NSCLC) was 10.8 µM, the TGI (A549 NSCLC) was 27.7 µM and the GI50 (SNB-19 CNS) was 14 µM. It also gave a TGI (SNB-19 CNS) of 35.6 µM, a GI50 (SF-295 CNS) of 11.9 µM and a TGI (SF-295 CNS) of 26.3 µM. It also gave a GI50 (SK-OV-3 ovarian) of 17.9 µM, a TGI (SK-OV-3 ovarian) of 52.2 µM and a GI50 (NCI-H460 lung) of 15.5 µM. For the same molecule, the TGI (NCI-H460 lung) was 41 µM, the GI50 (M14 melanoma) was 9.54 µM and the TGI (M14 melanoma) was 22.7 µM. For the same molecule, the GI50 (HCT-116 colon) was 1.63 µM, the TGI (HCT-116 colon) was 3.35 µM and the GI50 (TK-10 renal) was 17.8 µM. It also gave a TGI (TK-10 renal) of 68.2 µM, a GI50 (SNB-75 CNS) of 3 µM and a TGI (SNB-75 CNS) of 41.7 µM. For the same molecule, the GI50 (RPMI-8226 leukemia) was 2.27 µM, the TGI (RPMI-8226 leukemia) was 6.85 µM and the GI50 (OVCAR-8 ovarian) was 16.8 µM. It also gave a TGI (OVCAR-8 ovarian) of 64.3 µM, a GI50 (SK-MEL-5 melanoma) of 7.59 µM and a TGI (SK-MEL-5 melanoma) of 20.4 µM. It also gave a GI50 (MDA-MB-435) of 3.11 µM, a TGI (MDA-MB-435) of 13.5 µM and a GI50 (MCF7 breast) of 3.15 µM. For the same molecule, the TGI (MCF7 breast) was 14 µM, the GI50 (OVCAR-3 ovarian) was 11.8 µM and the TGI (OVCAR-3 ovarian) was 26.8 µM. The GI50 (U251 CNS) was 6.17 µM, the TGI (U251 CNS) was 21.3 µM and the GI50 (MALME-3M melanoma) was 15 µM. It also gave a TGI (MALME-3M melanoma) of 38.9 µM, a GI50 (HL-60(TB) leukemia) of 12.3 µM and a TGI (HL-60(TB) leukemia) of 68.3 µM. For the same molecule, the GI50 (K-562 leukemia) was 4.03 µM, the TGI (K-562 leukemia) was greater than 100 µM and the GI50 (OVCAR-5 ovarian) was 16.5 µM. For the same molecule, the TGI (OVCAR-5 ovarian) was 36.6 µM, the GI50 (CAKI-1 renal) was 11.5 µM and the TGI (CAKI-1 renal) was 29.6 µM. For the same molecule, the GI50 (LOX IMVI melanoma) was 7.56 µM, the TGI (LOX IMVI melanoma) was 20.8 µM and the GI50 (UO-31 renal) was 10.3 µM. The TGI (UO-31 renal) was 23.9 µM, the GI50 (HOP-62 NSCLC) was 18.2 µM and the TGI (HOP-62 NSCLC) was 53.5 µM. It also gave a GI50 (PC-3 prostate) of 7.74 µM, a TGI (PC-3 prostate) of 51.9 µM and a GI50 (MDA-MB-231 breast) of 11.7 µM. It also gave a TGI (MDA-MB-231 breast) of 30.9 µM, a GI50 (NCI-H23 lung) of 13.9 µM and a TGI (NCI-H23 lung) of 28.9 µM. It also gave a GI50 (KM12 colon) of 4.94 µM, a TGI (KM12 colon) of 26.8 µM and a GI50 (MOLT-4 leukemia) of 7.1 µM. It also gave a TGI (MOLT-4 leukemia) of 57.1 µM, a GI50 (SW-620 colon) of 15.1 µM and a TGI (SW-620 colon) of 34.9 µM. It also gave a GI50 (A498 renal) of 14.2 µM, a TGI (A498 renal) of 28.7 µM and a GI50 (SK-MEL-2 melanoma) of 12.8 µM. It also gave a TGI (SK-MEL-2 melanoma) of 33.9 µM, a GI50 (BT-549 breast) of 8.21 µM and a TGI (BT-549 breast) of 21.6 µM. For the same molecule, the GI50 (DU-145 prostate) was 13.7 µM, the TGI (DU-145 prostate) was 28.9 µM and the GI50 (RXF 393 renal) was 5.81 µM. For the same molecule, the TGI (RXF 393 renal) was 21.6 µM, the GI50 (SF-539 CNS) was 12.9 µM and the TGI (SF-539 CNS) was 25.9 µM. It also gave a GI50 (T-47D breast) of 3.17 µM, a TGI (T-47D breast) of 29.2 µM and a GI50 (SN12C renal) of 11.5 µM. It also gave a TGI (SN12C renal) of 35 µM, a GI50 (OVCAR-4 ovarian) of 13.3 µM and a TGI (OVCAR-4 ovarian) of 96.3 µM. For the same molecule, the GI50 (EKVX NSCLC) was 7.62 µM, the TGI (EKVX NSCLC) was 33 µM and the GI50 (HCT-15 colon) was 14.2 µM. It also gave a TGI (HCT-15 colon) of 35.3 µM, a GI50 (HS 578T breast) of 20.5 µM and a TGI (HS 578T breast) greater than 100 µM. The GI50 (HT29 colon) was 7.82 µM, the TGI (HT29 colon) was 24.6 µM and the GI50 (CCRF-CEM leukemia) was 5.76 µM. The TGI (CCRF-CEM leukemia) was 41.3 µM, the GI50 (COLO 205 colon) was 14.2 µM and the TGI (COLO 205 colon) was 29.6 µM. For the same molecule, the GI50 (MDA-MB-468 breast) was 5.7 µM, the TGI (MDA-MB-468 breast) was 20.6 µM and the GI50 (NCI/ADR-RES ovarian) was 21.8 µM. For the same molecule, the TGI (NCI/ADR-RES ovarian) was 82.3 µM.
